Values quoted from earlier work in patent publication US20060062848A1, “Formulation comprising itraconazole” (Nektar Therapeutics UK Limited, priority 2004, published 2006).
Values after ≈ are worked out from the molar mass of the structure shown. Like-named read-outs stand apart in the source and are kept apart here.

aqueous solubility (neutral pH): 0.001 µg/mL (≈ 0.00142 µM)
aqueous solubility (pH 1): 6 µg/mL (≈ 8.5 µM)
SMILES: CCC(C)n1ncn(-c2ccc(N3CCN(c4ccc(OCC5CO[C@](Cn6cncn6)(c6ccc(Cl)cc6Cl)O5)cc4)CC3)cc2)c1=O (mixture of isomers) [itraconazole, (±) cis-4-[4-[4-[4-[[2-(2,4-dichlorphenyl)-2-(1H-1,2,4-triazol-1-ylmethyl)-1,3-dioxolan-4-yl]methoxy]phenyl]-1-piperazinyl]phenyl]-2,4-dihydro-2-(1-methylpropyl)-3H-1,2,4-triazol-3-one]
